Patent US8785463B2, “GPR 119 agonists” (Cadila Healthcare Limited, priority 2010, dated 2014)

Target: T1, human GPR 119 receptor (Homo sapiens, UniProt Q8TDV5)
T1 construct: expressed in transfected cells
T1 sequence (Q8TDV5 1-335): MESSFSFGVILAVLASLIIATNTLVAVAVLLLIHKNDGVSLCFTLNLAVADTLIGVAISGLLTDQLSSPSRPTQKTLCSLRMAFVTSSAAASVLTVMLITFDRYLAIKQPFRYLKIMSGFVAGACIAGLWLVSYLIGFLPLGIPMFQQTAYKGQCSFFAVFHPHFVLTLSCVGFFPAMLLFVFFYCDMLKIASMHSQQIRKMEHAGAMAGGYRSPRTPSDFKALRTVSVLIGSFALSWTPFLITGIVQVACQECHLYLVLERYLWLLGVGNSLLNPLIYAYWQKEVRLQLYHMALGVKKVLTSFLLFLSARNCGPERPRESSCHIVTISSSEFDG
Assay: cAMP assay in stable cell line expressing recombinant human GPR 119 receptor
Assay type: cell-based
Conditions: DMSO = 1
Description: A stable cell line expressing recombinant human GPR 119 receptor was established and used to investigate the efficacy of the compounds of the invention based on the intracellular levels of cyclic AMP (cAMP) using commercially available cAMP kits.

CCOC(=O)N1CCC(Oc2cc(Oc3cccc(/C=C4\SC(=O)NC4=O)c3)ncn2)CC1 [Example 51, (Z)-Ethyl 4-((6-(3-((2,4-dioxothiazolidin-5-ylidene)methyl)phenoxy)pyrimidin-4-yl)oxy)piperidine-1-carboxylate]
Fold increase in cyclic AMP with respective to DMSO (10 nM compound): 0.79 fold | Fold increase in cyclic AMP with respective to DMSO (100 nM compound): 1.25 fold | Fold increase in cyclic AMP with respective to DMSO (1 uM compound): 2.81 fold

CCOC(=O)N1CCC(Oc2ncnc(Oc3cccc(/C=C4\SC(=O)NC4=O)c3)c2C)CC1 [Example 20, (Z)-Ethyl 4-((6-(3-((2,4-dioxothiazolidin-5-ylidene)methyl)phenoxy)-5-methylpyrimidin-4-yl)oxy)piperidine-1-carboxylate]
Fold increase in cyclic AMP with respective to DMSO (10 nM compound): 0.59 fold | Fold increase in cyclic AMP with respective to DMSO (100 nM compound): 2.02 fold | Fold increase in cyclic AMP with respective to DMSO (1 uM compound): 2.39 fold

CC(C)(C)OC(=O)N1CCC(Oc2cc(Oc3cccc(/C=C4\SC(=O)NC4=O)c3)ncn2)CC1 [Example 19, (Z)-tert-Butyl 4-((6-(3-((2,4-dioxothiazolidin-5-ylidene)methyl)phenoxy)pyrimidin-4-yl)oxy)piperidine-1-carboxylate]
Fold increase in cyclic AMP with respective to DMSO (10 nM compound): 1.31 fold | Fold increase in cyclic AMP with respective to DMSO (100 nM compound): 1.92 fold | Fold increase in cyclic AMP with respective to DMSO (1 uM compound): 4.24 fold

COC(=O)N1CCC(Oc2ncnc(Oc3cccc(/C=C4\SC(=O)NC4=O)c3)c2C)CC1 [Example 21, (Z)-Methyl 4-((6-(3-((2,4-dioxothiazolidin-5-ylidene)methyl)phenoxy)-5-methylpyrimidin-4-yl)oxy)piperidine-1-carboxylate]
Fold increase in cyclic AMP with respective to DMSO (10 nM compound): 0.92 fold | Fold increase in cyclic AMP with respective to DMSO (100 nM compound): 1.06 fold | Fold increase in cyclic AMP with respective to DMSO (1 uM compound): 2.35 fold

Cc1c(Oc2ccc(/C=C3\SC(=O)NC3=O)cc2)ncnc1OC1CCN(C(=O)OC(C)C)CC1 [Example 16, (Z)-iso-Propyl 4-((6-(4-((2,4-dioxothiazolidin-5-ylidene)methyl)phenoxy)-5-methylpyrimidin-4-yl)oxy)piperidine-1-carboxylate]
Fold increase in cyclic AMP with respective to DMSO (10 nM compound): 1.91 fold | Fold increase in cyclic AMP with respective to DMSO (100 nM compound): 2.54 fold | Fold increase in cyclic AMP with respective to DMSO (1 uM compound): 3.17 fold

COC(=O)N1CCC(Oc2ncnc(Oc3ccc(/C=C4\SC(=O)NC4=O)cc3)c2C)CC1 [Example 11, (Z)-Methyl 4-((6-(4-((2,4-dioxothiazolidin-5-ylidene)methyl)phenoxy)-5-methylpyrimidin-4-yl)oxy)piperidine-1-carboxylate]
Fold increase in cyclic AMP with respective to DMSO (10 nM compound): 1.00 fold | Fold increase in cyclic AMP with respective to DMSO (100 nM compound): 1.38 fold | Fold increase in cyclic AMP with respective to DMSO (1 uM compound): 2.51 fold

O=C1NC(=O)/C(=C/c2ccc(Oc3cc(OC4CCN(Cc5ccccc5)CC4)ncn3)cc2)S1 [Example 37, (Z)-5-(4-((6-((1-Benzylpiperidin-4-yl)oxy)pyrimidin-4-yl)oxy)benzylidene)thiazolidine-2,4-dione]
Fold increase in cyclic AMP with respective to DMSO (10 nM compound): 0.97 fold | Fold increase in cyclic AMP with respective to DMSO (100 nM compound): 1.47 fold | Fold increase in cyclic AMP with respective to DMSO (1 uM compound): 2.07 fold

CC(C)COC(=O)N1CCC(Oc2cc(Oc3cccc(/C=C4\SC(=O)NC4=O)c3)ncn2)CC1 [Example 54, (Z)-Isobutyl 4-((6-(3-((2,4-dioxothiazolidin-5-ylidene)methyl)phenoxy)pyrimidin-4-yl)oxy)piperidine-1-carboxylate]
Fold increase in cyclic AMP with respective to DMSO (10 nM compound): 1.31 fold | Fold increase in cyclic AMP with respective to DMSO (100 nM compound): 2.28 fold | Fold increase in cyclic AMP with respective to DMSO (1 uM compound): 4.11 fold

Cc1c(Oc2ccc(/C=C3\SC(=O)NC3=O)cc2)ncnc1OC1CCN(Cc2ccccc2)CC1 [Example 38, (Z)-5-(4-((6-((1-Benzylpiperidin-4-yl)oxy)-5-methylpyrimidin-4-yl)oxy)benzylidene)thiazolidine-2,4-dione]
Fold increase in cyclic AMP with respective to DMSO (10 nM compound): 0.34 fold | Fold increase in cyclic AMP with respective to DMSO (100 nM compound): 0.67 fold | Fold increase in cyclic AMP with respective to DMSO (1 uM compound): 1.64 fold

CCc1cnc(N2CCC(Oc3ncnc(Oc4cccc(/C=C5\SC(=O)NC5=O)c4)c3C)CC2)nc1 [Example 26, (Z)-5-(3-((6-((1-(5-Ethylpyrimidin-2-yl)piperidin-4-yl)oxy)-5-methylpyrimidin-4-yl)oxy)benzylidene)thiazolidine-2,4-dione]
Fold increase in cyclic AMP with respective to DMSO (10 nM compound): 4.02 fold | Fold increase in cyclic AMP with respective to DMSO (100 nM compound): 7.17 fold | Fold increase in cyclic AMP with respective to DMSO (1 uM compound): 9.34 fold

Cc1c(OCC2CCCN2C(=O)OC(C)(C)C)ncnc1Oc1cccc(/C=C2\SC(=O)NC2=O)c1 (stereo not drawn) [Example 23, (Z)-tert-Butyl 2-(((6-(3-((2,4-dioxothiazolidin-5-ylidene)methyl)phenoxy)-5-methylpyrimidin-4-yl)oxy)methyl)pyrrolidine-1-carboxylate]
Fold increase in cyclic AMP with respective to DMSO (10 nM compound): 0.90 fold | Fold increase in cyclic AMP with respective to DMSO (100 nM compound): 1.29 fold | Fold increase in cyclic AMP with respective to DMSO (1 uM compound): 1.11 fold

O=C1NC(=O)/C(=C/c2ccc(Oc3cc(OC4CCN(c5ncccn5)CC4)ncn3)cc2)S1 [Example 43, (Z)-5-(4-((6-((1-(Pyrimidin-2-yl)piperidin-4-yl)oxy)pyrimidin-4-yl)oxy)benzylidene)thiazolidine-2,4-dione]
Fold increase in cyclic AMP with respective to DMSO (10 nM compound): 0.94 fold | Fold increase in cyclic AMP with respective to DMSO (100 nM compound): 1.27 fold | Fold increase in cyclic AMP with respective to DMSO (1 uM compound): 1.98 fold

O=C1NC(=O)/C(=C/c2cccc(Oc3cc(OC4CCN(c5ncccn5)CC4)ncn3)c2)S1 [Example 42, (Z)-5-(3-((6-((1-(Pyrimidin-2-yl)piperidin-4-yl)oxy)pyrimidin-4-yl)oxy)benzylidene)thiazolidine-2,4-dione]
Fold increase in cyclic AMP with respective to DMSO (10 nM compound): 0.65 fold | Fold increase in cyclic AMP with respective to DMSO (100 nM compound): 1.27 fold | Fold increase in cyclic AMP with respective to DMSO (1 uM compound): 3.10 fold

Cc1c(OCC2CCCN2C(=O)OC(C)(C)C)ncnc1Oc1ccc(/C=C2\SC(=O)NC2=O)cc1 (stereo not drawn) [Example 18, (Z)-tert-Butyl 2-(((6-(4-((2,4-dioxothiazolidin-5-ylidene)methyl)phenoxy)-5-methylpyrimidin-4-yl)oxy)methyl)pyrrolidine-1-carboxylate]
Fold increase in cyclic AMP with respective to DMSO (10 nM compound): 1.50 fold | Fold increase in cyclic AMP with respective to DMSO (100 nM compound): 2.57 fold | Fold increase in cyclic AMP with respective to DMSO (1 uM compound): 4.03 fold

CCc1cnc(N2CCC(Oc3ncnc(Oc4ccc(/C=C5\SC(=O)N(S(C)(=O)=O)C5=O)cc4)c3C)CC2)nc1 [Example 3, (2)-5-(4-((6-((1-(5-Ethylpyrimidin-2-yl)piperidin-4-yl)oxy)-5-methylpyrimidin-4-yl)oxy)benzylidene)-3-(methylsulfonyl)thiazolidine-2,4-dione]
Fold increase in cyclic AMP with respective to DMSO (10 nM compound): 0.64 fold | Fold increase in cyclic AMP with respective to DMSO (100 nM compound): 0.88 fold | Fold increase in cyclic AMP with respective to DMSO (1 uM compound): 2.02 fold

CC(=O)CN1C(=O)S/C(=C\c2ccc(Oc3cc(OC4CCN(C(=O)OC(C)(C)C)CC4)ncn3)cc2)C1=O [Example 46, (Z)-tert-Butyl 4-((6-(4-((2,4-dioxo-3-(2-oxopropyl)thiazolidin-5-ylidene)methyl)phenoxy)pyrimidin-4-yl)oxy)piperidine-1-carboxylate]
Fold increase in cyclic AMP with respective to DMSO (10 nM compound): 1.58 fold | Fold increase in cyclic AMP with respective to DMSO (100 nM compound): 1.89 fold | Fold increase in cyclic AMP with respective to DMSO (1 uM compound): 5.45 fold

COC(=O)N1CCC(Oc2ncnc(Oc3cccc(/C=C4\SC(=O)N(C(C)C)C4=O)c3)c2C)CC1 [Example 32, (Z)-Methyl 4-((6-(3-((3-isopropyl-2,4-dioxothiazolidin-5-ylidene)methyl)phenoxy)-5-methylpyrimidin-4-yl)oxy)piperidine-1-carboxylate]
Fold increase in cyclic AMP with respective to DMSO (10 nM compound): 0.77 fold | Fold increase in cyclic AMP with respective to DMSO (100 nM compound): 0.94 fold | Fold increase in cyclic AMP with respective to DMSO (1 uM compound): 1.45 fold

Cc1c(Oc2ccc(/C=C3\SC(=O)NC3=O)cc2)ncnc1OC1CCN(C(=O)OCc2ccccc2)CC1 [Example 13, (Z)-Benzyl 4-((6-(4-((2,4-dioxothiazolidin-5-ylidene)methyl)phenoxy)-5-methylpyrimidin-4-yl)oxy)piperidine-1-carboxylate]
Fold increase in cyclic AMP with respective to DMSO (10 nM compound): 0.61 fold | Fold increase in cyclic AMP with respective to DMSO (100 nM compound): 0.63 fold | Fold increase in cyclic AMP with respective to DMSO (1 uM compound): 1.42 fold

CC(C)COC(=O)N1CCC(Oc2cc(Oc3cccc(/C=C4\SC(=O)NC4=O)c3)ncn2)CC1 [Example 33, (Z)-Isobutyl 4-((6-(3-((2,4-dioxothiazolidin-5-ylidene)methyl)phenoxy)pyrimidin-4-yl)oxy)piperidine-1-carboxylate]
Fold increase in cyclic AMP with respective to DMSO (10 nM compound): 0.83 fold | Fold increase in cyclic AMP with respective to DMSO (100 nM compound): 1.36 fold | Fold increase in cyclic AMP with respective to DMSO (1 uM compound): 2.72 fold

Cc1c(Oc2cccc(/C=C3\SC(=O)NC3=O)c2)ncnc1OC1CCN(C(=O)OCC(C)C)CC1 [Example 22, (Z)-iso-Butyl 4-((6-(3-((2,4-dioxothiazolidin-5-ylidene)methyl)phenoxy)-5-methylpyrimidin-4-yl)oxy)piperidine-1-carboxylate]
Fold increase in cyclic AMP with respective to DMSO (10 nM compound): 0.95 fold | Fold increase in cyclic AMP with respective to DMSO (100 nM compound): 1.82 fold | Fold increase in cyclic AMP with respective to DMSO (1 uM compound): 1.66 fold

CCOC(=O)CN1C(=O)S/C(=C\c2cccc(Oc3ncnc(OC4CCN(C(=O)OC(C)(C)C)CC4)c3C)c2)C1=O [Example 45, (Z)-tert-Butyl 4-((6-(3-((3-(2-ethoxy-2-oxoethyl)-2,4-dioxothiazolidin-5-ylidene)methyl)phenoxy)-5-methylpyrimidin-4-yl)oxy)piperidine-1-carboxylate]
Fold increase in cyclic AMP with respective to DMSO (10 nM compound): 1.05 fold | Fold increase in cyclic AMP with respective to DMSO (100 nM compound): 1.33 fold | Fold increase in cyclic AMP with respective to DMSO (1 uM compound): 2.88 fold
